This is an account of results in ChEMBL document CHEMBL3612065, “Development of N-hydroxybenzamide derivatives with indole-containing cap group as histone deacetylases inhibitors” (Bioorg Med Chem, 2015).

Test [1] is described as follows: Inhibition of Class 1 histone deacetylase isolated from human HeLa cell nuclear extracts using Boc-Lys (acetyl)-AMC as substrate preincubated for 10 mins followed by substrate addition measured after 30 mins by fluorescence assay. The format is cell-based.
In test [2] the test system is U-937. Nature of the test: Cytotoxicity against human U937 cells assessed as growth inhibition after 48 hrs by MTT assay. The format is functional, cell-based. The note with it: U-937, 48 h. In general terms: Formazan colour is commonly taken as a measure of viable cells.
The test system of test [3] is HEL. Nature of the test: Cytotoxicity against human HEL cells assessed as growth inhibition after 48 hrs by MTT assay. The format is functional, cell-based.
Test [4] has as its system PC-3. The test is described as follows: Cytotoxicity against human PC3 cells assessed as growth inhibition after 48 hrs by MTT assay. The format is functional, cell-based. Conditions: PC-3, 48 h.
Test [5] deals with PC-3. The test is described as follows: Selectivity ratio of IC50 for Class 2a histone deacetylase in human PC3 to IC50 for Class 1 histone deacetylase in human PC3 cells. The format is cell-based.
Test [6] relates to HeLa. Nature of the test: Ratio of IC50 for Class 1 histone deacetylase in human PC3 cells to IC50 for Class 1 histone deacetylase isolated from human HeLa cell nuclear extracts.
Test [7] is described as follows: Cytotoxicity against human U266 cells assessed as growth inhibition after 48 hrs by MTT assay. The format is functional, cell-based. Conditions: U-266, 48 h.
For test [8], the system named is HCT-116. The test is described as follows: Cytotoxicity against human HCT116 cells assessed as growth inhibition after 48 hrs by MTT assay. The format is functional, cell-based. Conditions: HCT-116, 48 h.
In test [9] the test system is HeLa. Nature of the test: Potency index, ratio of SAHA IC50 to compound IC50 for Class 1 histone deacetylase isolated from human HeLa cell nuclear extracts. The format is cell-based.
In test [10] the test system is K562. Nature of the test: Cytotoxicity against human K562 cells assessed as growth inhibition after 48 hrs by MTT assay. The format is functional, cell-based. Conditions: K562, 48 h.
Test [11] has as its system PC-3. The test is described as follows: Inhibition of Class 2a histone deacetylase in human PC3 cells using Boc-Lys (triflouroacetyl)-AMC as substrate preincubated for 3 hrs followed by substrate addition measured after 3 hrs by fluorescence assay. The format is cell-based.
The test system of test [12] is PC-3. The test is described as follows: Inhibition of Class 1 histone deacetylase in human PC3 cells using Boc-Lys (acetyl)-AMC as substrate preincubated for 3 hrs followed by substrate addition measured after 3 hrs by fluorescence assay. The format is cell-based.

On to `O=C(Cc1ccccc1)N[C@@H](Cc1c[nH]c2ccccc12)C(=O)Nc1ccc(C(=O)NO)cc1`, for which inhibition in [1] was half-maximal at 47.5 nM (IC50).
On the same count and under the same terms, the result for `O=C(CCc1ccccc1)N[C@@H](Cc1c[nH]c2ccccc12)C(=O)Nc1ccc(C(=O)NO)cc1` reads 59.7 nM.
On to `CC(C)(C)OC(=O)N[C@@H](Cc1c[nH]c2ccccc12)C(=O)Nc1ccc(C(=O)NO)cc1`, for which 280 nM corresponded to half-maximal inhibition in test [1] (IC50).
Still for that read-out and setting: the result for `CC(C)C(=O)N[C@@H](Cc1c[nH]c2ccccc12)C(=O)Nc1ccc(C(=O)NO)cc1` reads 526 nM.
Same read-out and setting: the result for `Cc1ccc(C(=O)N[C@@H](Cc2c[nH]c3ccccc23)C(=O)Nc2ccc(C(=O)NO)cc2)cc1` reads 13 nM; that for `CC(C)=CC(=O)N[C@@H](Cc1c[nH]c2ccccc12)C(=O)Nc1ccc(C(=O)NO)cc1`, 139 nM; that for `O=C(NO)c1ccc(NC(=O)[C@H](Cc2c[nH]c3ccccc23)NC(=O)c2cccc(Cl)c2)cc1`, 43.1 nM.
On the same count and under the same terms, the result for `O=C(NO)c1ccc(NC(=O)[C@H](Cc2c[nH]c3ccccc23)NC(=O)c2ccncc2)cc1` reads 100 nM; that for `CCS(=O)(=O)N[C@@H](Cc1c[nH]c2ccccc12)C(=O)Nc1ccc(C(=O)NO)cc1`, 1090 nM; that for `O=C(NO)c1ccc(NC(=O)[C@H](Cc2c[nH]c3ccccc23)NC(=O)c2ccc(C(F)(F)F)cc2)cc1`, 30 nM.
With `O=C(CCCc1ccccc1)N[C@@H](Cc1c[nH]c2ccccc12)C(=O)Nc1ccc(C(=O)NO)cc1`, in [1], half-maximal inhibition (IC50) was put at 98.7 nM.
With `O=C(NO)c1ccc(NC(=O)[C@H](Cc2c[nH]c3ccccc23)NC(=O)c2ccc(Cl)cc2)cc1`, the IC50 in test [2] came to 1090 nM; in [3], 1970 nM; in [4], 740 nM; in test [7], 1010 nM; in [8], 1450 nM; in [1], 1.5 nM. Besides, the results for the IC50 in test [10], in [11] and in test [12] were 1670 nM, 60.1 nM and 33.2 nM, respectively. For the same compound, the Ratio IC50 worked out at 2 in test [5], 22 in test [6] and 100 in test [9].
Consider `COc1cc(CCC(=O)Nc2ccc(C(=O)NO)cc2)ccc1OCc1cccs1`, for which 192 nM corresponded to half-maximal inhibition in [1] (IC50).
Still for that read-out and setting: the result for `O=C(/C=C/c1ccc(OC[C@H](Cc2c[nH]c3ccccc23)NC(=O)c2ccc(Cl)cc2)cc1)NO` reads 6.8 nM; that for `O=C(NO)c1ccc(NC(=O)[C@H](Cc2c[nH]c3ccccc23)NC(=O)c2ccccc2)cc1`, 23.8 nM; that for `COc1ccc(C(=O)N[C@@H](Cc2c[nH]c3ccccc23)C(=O)Nc2ccc(C(=O)NO)cc2)cc1`, 8.6 nM.
As to `O=C(NO)c1ccc(NC(=O)[C@H](Cc2c[nH]c3ccccc23)NC(=O)c2ccc(Br)cc2)cc1`, the IC50 in [1] is 3.7 nM.
The same measure, in the same setting: the result for `O=C(NO)c1ccc(NC(=O)[C@H](Cc2c[nH]c3ccccc23)NC(=O)c2ccc(Cl)cc2Cl)cc1` reads 23.3 nM.
For `CCC(CC)C(=O)N[C@@H](Cc1c[nH]c2ccccc12)C(=O)Nc1ccc(C(=O)NO)cc1`, the concentration for half-maximal inhibition (IC50) in test [1] turned out to be 333 nM.
Compound `O=C(NO)c1ccc(NC(=O)[C@H](Cc2c[nH]c3ccccc23)NC(=O)c2cc(Cl)cc(Cl)c2)cc1` came in with an IC50 in test [1] of 41.2 nM.
On the same count and under the same terms, the result for `O=C(NO)c1ccc(NC(=O)[C@H](Cc2c[nH]c3ccccc23)NS(=O)(=O)c2ccccc2)cc1` reads 178 nM; that for `CN(C)c1ccc(C(=O)N[C@@H](Cc2c[nH]c3ccccc23)C(=O)Nc2ccc(C(=O)NO)cc2)cc1`, 4.7 nM; that for `Cc1ccc(S(=O)(=O)N[C@@H](Cc2c[nH]c3ccccc23)C(=O)Nc2ccc(C(=O)NO)cc2)cc1`, 196 nM.
Same read-out and setting: the result for `CCCC(CCC)C(=O)N[C@@H](Cc1c[nH]c2ccccc12)C(=O)Nc1ccc(C(=O)NO)cc1` reads 212 nM.
Take `O=C(NO)c1ccc(NC(=O)[C@H](Cc2c[nH]c3ccccc23)NC(=O)c2ccco2)cc1`: the IC50 in test [2] turned out to be 3430 nM; in [3], 3360 nM; in test [4], 3340 nM; in [7], 3760 nM; in test [8] it was 2770 nM; in test [1] it was 31 nM. For the same compound, the half-inhibitory concentration (IC50) in test [10] stood at 4560 nM; in test [11], 665 nM; in test [12], 333 nM. The Ratio IC50 stood at 2 in test [5] and 11 in [6].
Take `O=C(NO)c1ccc(NC(=O)[C@H](Cc2c[nH]c3ccccc23)NC(=O)c2ccc(F)cc2)cc1`: half-maximal inhibition in test [1] (IC50) required 2.4 nM.
In turn, `CC(=O)N[C@@H](Cc1c[nH]c2ccccc12)C(=O)Nc1ccc(C(=O)NO)cc1` came in with an IC50 in [1] of 425 nM.
The same measure, in the same setting: the result for `O=C(NO)c1ccc(NC(=O)[C@H](Cc2c[nH]c3ccccc23)NC(=O)c2ccccc2Cl)cc1` reads 157 nM; that for `CC(C)(C)OC(=O)N[C@H](C(=O)Nc1ccc(C(=O)NO)cc1)c1ccccc1`, 123 nM.
The compound `O=C(NO)c1ccc(NC(=O)[C@H](Cc2c[nH]c3ccccc23)NC(=O)c2ccc3ccccc3c2)cc1` had an IC50 in [1] of 27 nM.

As usually defined, the IC50 is the midpoint of a concentration-inhibition curve.
